Measured values as given in patent US6444691B1, “1,3-disubstituted ureas as ACAT inhibitors, and method of preparing thereof” (Solvakofarma, a.s., priority 1997, dated 2002).

Tests used:
[1] = system: rat liver ACAT (acylCoa:cholesterol acyltransferase); assay: In vitro inhibition of ACAT activity, rat liver microsomal fraction; format: biochemical; conditions: rat liver microsomes, concentration 2 μM, versus enzyme activity in 1% dimethylsulfoxide
Experimental: (§1) The biological activity of the substances was evaluated based on the in vitro inhibition of acylCoa:cholesterol acyltransferase (ACAT) activity. The enzyme was obtained from the microsomal fraction of rat liver cells and rabbit intestinal mucosa of animals fed with cholesterol. The substrates for the enzyme reaction included exogenous oleoyl co-enzyme A and endogenous cholesterol. ^14C-oleoyl co-enzyme A conversion to ^14C-cholesteryl oleate was monitored. From the mixture of extracted lipids, cholesteryl oleate was separated using thin-layer chromatography, and was quantified radiometrically. ACAT specific activity was expressed as the amount of cholesteryl oleate formed per minute per mg microsomal protein.
(§2) Efficiency was calculated as compared to enzyme activity measured in the presence of 1% dimethylsulfoxide used as the solvent to prepare solutions of the substances tested.

[2] = system: rabbit intestinal mucosa ACAT (acylCoa:cholesterol acyltransferase); assay: In vitro inhibition of ACAT activity, rabbit intestinal mucosa microsomal fraction; format: biochemical; conditions: rabbit intestinal mucosa microsomes, concentration 2 μM, versus enzyme activity in 1% dimethylsulfoxide
Experimental: as §1, §2

Structure (SMILES) | Efficiency (%) liver (ACAT inhibition) [1] [%] | Efficiency (%) mucosa (ACAT inhibition) [2] [%]
Cc1ccccc1NC(=O)Nc1ccc(Sc2ccc([N+](=O)[O-])cc2)cc1 [Example 37, 1-(2-Methylphenyl)-3-((4′-nitrophenylthio)-phenyl)-urea] | 27 | 31
Cc1ccc(NC(=O)Nc2ccc(Sc3ccc([N+](=O)[O-])cc3)cc2)cc1 [Example 38, 1-(4-Methylphenyl)-3-((4′-nitrophenylthio)-phenyl)-urea] | 21 | 32
Cc1cc(C)cc(NC(=O)Nc2ccc(Sc3ccc([N+](=O)[O-])cc3)cc2)c1 [Example 41, 1-(3,5-Dimethylphenyl)-3-((4′-nitrophenylthio)-phenyl)-urea] | 18 | 27
O=C(Nc1ccc(Sc2ccc([N+](=O)[O-])cc2)cc1)Nc1ccccc1C(F)(F)F [Example 43, 1-(2-Trifluoromethylphenyl)-3-((4′-nitrophenylthio)-phenyl)-urea] | 25 | 38
O=C(Nc1ccc(Sc2ccc([N+](=O)[O-])cc2)cc1)Nc1ccc(C(F)(F)F)cc1 [Example 45, 1-(4-Trifluoromethylphenyl)-3-((4′-nitrophenylthio)-phenyl)-urea] | 23 | 25
O=C(Nc1ccc(Sc2ccc([N+](=O)[O-])cc2)cc1)Nc1ccccn1 [Example 46, 1-(2-Pyridyl)-3-((4′-nitrophenylthio)-phenyl)-urea] | 48 | 46
O=C(Nc1ccc(Sc2ccc([N+](=O)[O-])cc2)cc1)Nc1cccnc1 [Example 47, 1-(3-Pyridyl)-3-((4′-nitrophenylthio)-phenyl)-urea] | 45 | 36
O=C(Nc1ccncc1)Nc1ccc(Sc2ccc([N+](=O)[O-])cc2)cc1 [Example 48, 1-(4-Pyridyl)-3-((4′-nitrophenylthio)-phenyl)-urea] | 53 | 35
O=C(Nc1ccc(Sc2ccc([N+](=O)[O-])cc2)cc1)Nc1cccc2ccccc12 [Example 49, 1-(1-Naphthyl)-3-((4′-nitrophenylthio)-phenyl)-urea] | 24 | 36
O=C(Nc1ccc(Sc2ccc([N+](=O)[O-])cc2)cc1)Nc1ccc2ccccc2c1 [Example 50, 1-(2-Naphthyl)-3-((4′-nitrophenylthio)-phenyl)-urea] | 16 | 31
O=C(Nc1ccc(Sc2ccc([N+](=O)[O-])cc2)cc1)NC12CC3CC(CC(C3)C1)C2 [Example 51, 1-(1-Adamantyl)-3-((4′-nitrophenylthio)-phenyl)-urea] | 45 | 56

Other lines, results leading:

Efficiency (%) liver (ACAT inhibition) [1] [%] | Efficiency (%) mucosa (ACAT inhibition) [2] [%] | Structure (SMILES)
88 | 71 | CC(C)c1cccc(C(C)C)c1NC(=O)Nc1ccc(Sc2ccc([N+](=O)[O-])cc2)cc1 [Example 42]
53 | 64 | Nc1ccc(Oc2ccc(NC(=O)Nc3ccc(F)cc3F)cc2)cc1 [Example 52, 1-(2,4-Difluorophenyl)-3-((4′-aminophenoxy)-phenyl)-urea]
55 | 46 | Nc1ccc(Oc2ccc(NC(=O)Nc3cccc(Cl)c3Cl)cc2)cc1 [Example 53, 1-(2,3-Dichlorophenyl)-3-((4′-aminophenoxy)-phenyl)-urea]
38 | 62 | Cc1cccc(C)c1NC(=O)Nc1ccc(Oc2ccc(N)cc2)cc1 [Example 54, 1-(2,6-Dimethylphenyl)-3-((4′-aminophenoxy)-phenyl)-urea]
68 | 64 | CC(C)c1cccc(C(C)C)c1NC(=O)Nc1ccc(Oc2ccc(N)cc2)cc1 [Example 55, 1-(2,6-Di(methylethyl)-phenyl)-3-((4′-aminophenoxy)-phenyl)-urea]
22 | 25 | Nc1ccc(Sc2ccc(NC(=O)Nc3ccc(F)cc3F)cc2)cc1 [Example 56, 1-(2,4-Difluorophenyl)-3-((4′-aminophenylthio)-phenyl)-urea]
15 | 26 | Nc1ccc(Sc2ccc(NC(=O)Nc3cccc(Cl)c3Cl)cc2)cc1 [Example 57, 1-(2,3-Dichlorophenyl)-3-((4′-aminophenylthio)-phenyl)-urea]
21 | 29 | Cc1cccc(C)c1NC(=O)Nc1ccc(Sc2ccc(N)cc2)cc1 [Example 58, 1-(2,6-Dimethylphenyl)-3-((4′-aminophenylthio)-phenyl)-urea]
56 | 67 | CC(C)c1cccc(C(C)C)c1NC(=O)Nc1ccc(Sc2ccc(N)cc2)cc1 [Example 59]
